Measured values reported in the NIST ThermoML archive (doi:10.1016/j.jct.2011.10.028).
± gives the expanded uncertainty stated by the source.

Legend:
[1] = relative permittivity at zero frequency (dimensionless); conditions: 300.15 K; 101.33 kPa; Liquid; impedance analyzer
[2] = refractive index (Na D-line) (dimensionless); conditions: 300.15 K; 101.33 kPa; Liquid; Standard Abbe refractometry
[3] = 300.15 K; 101.33 kPa; Liquid; Pycnometric method

SMILES | relative permittivity at zero frequency [1] | refractive index [2] | mass density [3]
CCCO [propan-1-ol] | 20.678 ± 0.001 | 1.391 ± 0.001 | 798.5 ± 0.4 kg/m3
CC(C)O [propan-2-ol] | 18.562 ± 0.001 | 1.383 ± 0.001 | 779.2 ± 0.4 kg/m3
CNc1ccccc1 [N-methylaniline] | 5.878 ± 0.001 | 1.566 ± 0.001 | 979.8 ± 0.6 kg/m3
